Test system: bleeding time
Details: rat, in vivo, 2 mg/kg

increase in the bleeding time: 13
Substance: heparin

— US5849721A, “Sulfated polysaccharides obtained from heparin, preparation process, pharmaceutical composition and use thereof” (Rhone-Poulenc Rorer S.A., priority 1992, dated 1998)
